Among the test systems are CAKI-1; DU-145; EKVX; HCC 2998; HCT-116; Hs-578T; MDA-MB-435; Malme-3M; NCI-H226; NCI-H522; OVCAR-3; OVCAR-5; RXF 393; SK-MEL-2; SN12C; SR; U-251; UO-31; SF-295; SNB-75.
Holding throughout (assay): inhibition of tumour cell growth, NCI panel, 48 h

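How tested: cells in 96-well plates exposed to compound for 48 hours at five concentrations. Abbreviation: GI50, concentration required for 50% inhibition of growth.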 The source made the active and inactive calls. Rule as the data show it: active = GI50 up to about 1.1 µM and inactive = higher.

For the molecule `N#Cc1nc(-c2cccnc2)oc1N`, the GI50 in the experiment on CAKI-1, with DU-145, in the experiment with EKVX, in the experiment on HCC 2998, in the experiment with HCT-116 and in the experiment with Hs-578T was > 100 µM (inactive) in each case. Besides, the GI50 in the experiment with MDA-MB-435, with Malme-3M, with NCI-H226, in the experiment with NCI-H522, in the experiment with OVCAR-3 and with OVCAR-5 was > 100 µM (inactive) in each case. Moreover, the GI50 in the experiment on RXF 393 was > 100 µM (inactive); in the experiment with SK-MEL-2 it was > 100 µM (inactive); in the experiment on SN12C, > 100 µM (inactive); with SR, > 100 µM (inactive); in the experiment with U-251 it was > 100 µM (inactive); in the experiment with UO-31, 4.83 µM (inactive).
As for `O=C(C=P(c1ccccc1)(c1ccccc1)c1ccccc1)c1ccc(-c2cccc([N+](=O)[O-])c2)s1`, the GI50 with CAKI-1 was 35.2 µM (inactive); in the experiment with DU-145 it was > 100 µM (inactive); with EKVX it was 57.7 µM (inactive); in the experiment on HCC 2998 it was 51.1 µM (inactive); in the experiment with HCT-116, 61.8 µM (inactive); with Hs-578T it was 52.5 µM (inactive). Besides, the GI50 is 51.5 µM (inactive) in the experiment with MDA-MB-435; 81.7 µM (inactive) with Malme-3M; 23.7 µM (inactive) with NCI-H522; 32.7 µM (inactive) with OVCAR-3; > 100 µM (inactive) in the experiment with OVCAR-5; 70.8 µM (inactive) in the experiment on RXF 393. The GI50 in the experiment with SF-295 was 47.4 µM (inactive); in the experiment on SN12C, 68.7 µM (inactive); with SNB-75, 24 µM (inactive); with SR it was 42.5 µM (inactive); with U-251 it was 75.2 µM (inactive); in the experiment on UO-31 it was 48.2 µM (inactive).
For `CCCCc1c(OC)cc(O)c2c1C(=O)c1[nH]c(C(=O)O)c(O)c(=O)c1C2=O`, the GI50 is 13.2 µM (inactive) with CAKI-1; 63.1 µM (inactive) in the experiment with DU-145; 2.34 µM (inactive) in the experiment with EKVX; 19.8 µM (inactive) with HCC 2998; 3.37 µM (inactive) with HCT-116; 1.82 µM (inactive) in the experiment on Hs-578T. The GI50 in the experiment on MDA-MB-435 was 5.56 µM (inactive); with NCI-H226, 5.57 µM (inactive); in the experiment with NCI-H522, 2.12 µM (inactive); in the experiment on OVCAR-3 it was 0.908 µM (active); in the experiment on OVCAR-5, 4.9 µM (inactive); in the experiment with RXF 393, 1.56 µM (inactive). Besides, the GI50 with SF-295 is 22.8 µM (inactive); in the experiment on SK-MEL-2, 1.69 µM (inactive); with SN12C, 6.08 µM (inactive); in the experiment with SNB-75, 3.26 µM (inactive); in the experiment with SR it was 6.93 µM (inactive); with U-251, 2.95 µM (inactive). The GI50 with UO-31 is 1.73 µM (inactive).
Take `C[N+](C)(C)/N=C\c1ccc(O)c(O)c1`: the GI50 in the experiment on CAKI-1, in the experiment with DU-145, in the experiment on EKVX, with HCC 2998, in the experiment on HCT-116 and in the experiment with Hs-578T was > 100 µM (inactive) in each case. Besides, the GI50 in the experiment with MDA-MB-435, in the experiment on Malme-3M, with NCI-H226, in the experiment with NCI-H522, with OVCAR-3 and in the experiment on OVCAR-5 was > 100 µM (inactive) throughout. Also, the GI50 with RXF 393, in the experiment on SF-295, in the experiment with SK-MEL-2, with SN12C, with SR and in the experiment with U-251 was > 100 µM (inactive) in each case. Moreover, the GI50 in the experiment with UO-31 is > 100 µM (inactive).
In the case of `NS(=O)(=O)c1nnc(NC(=O)Nc2ccc(Cl)c(Cl)c2)s1`, the GI50 in the experiment on CAKI-1 is 25.9 µM (inactive); in the experiment with DU-145, 29.4 µM (inactive); with EKVX, 28.8 µM (inactive); with HCC 2998, 18.7 µM (inactive); in the experiment on HCT-116, 19.5 µM (inactive); in the experiment with Hs-578T, 29.2 µM (inactive). The GI50 with MDA-MB-435 is 20.3 µM (inactive); in the experiment on Malme-3M, 17.6 µM (inactive); with NCI-H226 it was 23.2 µM (inactive); with NCI-H522 it was 11.7 µM (inactive); with OVCAR-3 it was 24.9 µM (inactive); with OVCAR-5, 24.5 µM (inactive). In addition, the GI50 in the experiment on RXF 393 was 16.7 µM (inactive); in the experiment with SF-295, 31.7 µM (inactive); in the experiment on SK-MEL-2 it was 25.4 µM (inactive); in the experiment on SN12C, 19.3 µM (inactive); in the experiment with SR, 21.9 µM (inactive); in the experiment on U-251 it was 29.4 µM (inactive). Also, the GI50 in the experiment with UO-31 was 27.4 µM (inactive).
With `CC(=O)Nc1ccc(OC2=CCN(C)CC2)cc1`, the GI50 in the experiment with CAKI-1, with DU-145, in the experiment with EKVX, in the experiment with HCC 2998, with HCT-116 and with Hs-578T was > 100 µM (inactive) throughout. Also, the GI50 in the experiment with MDA-MB-435, in the experiment on Malme-3M, in the experiment on NCI-H226, with OVCAR-3, in the experiment on OVCAR-5 and in the experiment with RXF 393 was > 100 µM (inactive) each time. Also, the GI50 in the experiment on SF-295, with SK-MEL-2, with SN12C, in the experiment on SNB-75, in the experiment on SR and in the experiment with U-251 was > 100 µM (inactive) throughout. Also, the GI50 with UO-31 was > 100 µM (inactive).
For the molecule `COc1ccc(/C=C2/C(C)=NN(c3cccc(Cl)c3)/C2=N/c2nc3ccccc3s2)cc1`, the GI50 in the experiment with CAKI-1 is 28.4 µM (inactive); in the experiment on DU-145, 19.6 µM (inactive); in the experiment on EKVX, 40.2 µM (inactive); with HCC 2998, 18.3 µM (inactive); in the experiment on HCT-116, 19.2 µM (inactive); with Hs-578T it was 24.7 µM (inactive). Moreover, the GI50 is 33.7 µM (inactive) in the experiment on MDA-MB-435; 22.3 µM (inactive) with NCI-H226; 19.1 µM (inactive) in the experiment on NCI-H522; 20.2 µM (inactive) with OVCAR-3; 25.1 µM (inactive) in the experiment with OVCAR-5; 12 µM (inactive) with RXF 393. The GI50 in the experiment on SF-295 is 22.5 µM (inactive); with SK-MEL-2, 22.3 µM (inactive); with SNB-75, 26.8 µM (inactive); in the experiment on SR, 23.9 µM (inactive); with U-251, 20.7 µM (inactive); in the experiment on UO-31, 19.3 µM (inactive).
Take `Cc1nn(-c2ccccc2)c(C)c1/C=N/NC(=O)c1sc(=S)n(-c2ccc(Cl)cc2)c1N`: the GI50 with CAKI-1 is 2.76 µM (inactive); in the experiment with DU-145, > 100 µM (inactive); with EKVX it was 3.55 µM (inactive); in the experiment with HCC 2998, 18.8 µM (inactive); in the experiment with HCT-116, 7.74 µM (inactive); with Hs-578T, 2.4 µM (inactive). Further, the GI50 in the experiment on MDA-MB-435 is 9.64 µM (inactive); with Malme-3M it was 17.5 µM (inactive); with NCI-H226, 34.5 µM (inactive); in the experiment on OVCAR-3 it was 60.3 µM (inactive); with OVCAR-5 it was 6.44 µM (inactive); with RXF 393, 2.15 µM (inactive). Further, the GI50 is 2.71 µM (inactive) with SF-295; 17.3 µM (inactive) in the experiment with SK-MEL-2; 12.2 µM (inactive) in the experiment with SN12C; 1.48 µM (inactive) in the experiment on SNB-75; 3.73 µM (inactive) in the experiment on SR; 6 µM (inactive) in the experiment with U-251. Also, the GI50 in the experiment on UO-31 is 4.33 µM (inactive).

Source of the values: ChEMBL document CHEMBL1201862, “PubChem BioAssay data set” (2004).
